pKi: −log10 of the molar value. Counter-ions that a name gives are not always drawn. Like-named read-outs stand apart in the source and are kept apart here. Each block holds one compound with its values, some of them ahead of it.
Key:
[1] = target: T1, dopaminergic D2 receptors (Rattus norvegicus, UniProt P61169); experiment: Affinity for the D2 receptors, displacement of [3H]YM-09151-2; type: binding; settings: rat striatum, [3H]YM-09151-2 displacement, mean of at least 3 experiments; for pKi: D2 pKi; for Ki: read-out: D2 pKi (converted)
T1 construct: For these experiments, rat striatum is used; from tissue; host or cells: rat striatum homogenate
T1 sequence (P61169 whole entry): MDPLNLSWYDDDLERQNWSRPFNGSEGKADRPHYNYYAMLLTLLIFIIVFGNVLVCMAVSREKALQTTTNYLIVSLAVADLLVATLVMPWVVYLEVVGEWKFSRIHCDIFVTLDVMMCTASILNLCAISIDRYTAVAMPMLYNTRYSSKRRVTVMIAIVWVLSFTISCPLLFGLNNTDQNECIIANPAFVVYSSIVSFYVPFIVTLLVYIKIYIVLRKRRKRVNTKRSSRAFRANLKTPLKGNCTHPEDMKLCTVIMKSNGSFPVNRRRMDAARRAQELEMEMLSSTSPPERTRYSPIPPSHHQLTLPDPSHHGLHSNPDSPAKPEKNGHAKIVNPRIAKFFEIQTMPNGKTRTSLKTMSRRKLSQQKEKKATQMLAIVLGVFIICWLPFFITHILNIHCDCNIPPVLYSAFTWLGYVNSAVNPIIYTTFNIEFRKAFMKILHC
Protocol: Measurement of the affinity of the compounds of the invention for the D2 receptors
For these experiments, rat striatum is used. After thawing the brain in Tris-HCl buffer (50 mmol, pH=7.4) at 25° C., the striatum is removed and homogenized in 40 volumes of buffer maintained at 4° C. The homogenate is centrifuged at 20 000×g for 10 minutes, and the centrifugation pellet is suspended in the same volume of buffer and recentrifuged. The final pellet is suspended in cold Tris-HCl reaction buffer at 25° C. containing 120 mmol of NaCl and 5 mmol of KCl. The final concentration of tissue in the incubation medium is 2 mg/tube. […] The nonspecific binding is defined by using […] of (+)-butaclamol. The reaction tubes are incubated at 23° C. for 60 minutes and their content is then rapidly filtered through Whatman GF/B filters, and the tubes are rinsed twice with 5 ml of Tris-HCl buffer at 25° C. The radioactivity collected on the filter is analyzed by liquid scintillation, by adding 4 ml of scintillant liquid (Emulsifier Safe, Packard). All the experiments are performed in triplicate.

5-HT1A receptors [2] = target: T2, 5-HT1A receptors (Homo sapiens, UniProt P08908); experiment: Efficacy: stimulation of [35S]GTPγS binding in a cell membrane preparation; type: biochemical
T2 construct: Gibco Biocult; Laboratory, Paisley UK; host or cells: unspecified cells; membrane preparation
T2 sequence (P08908 1-422): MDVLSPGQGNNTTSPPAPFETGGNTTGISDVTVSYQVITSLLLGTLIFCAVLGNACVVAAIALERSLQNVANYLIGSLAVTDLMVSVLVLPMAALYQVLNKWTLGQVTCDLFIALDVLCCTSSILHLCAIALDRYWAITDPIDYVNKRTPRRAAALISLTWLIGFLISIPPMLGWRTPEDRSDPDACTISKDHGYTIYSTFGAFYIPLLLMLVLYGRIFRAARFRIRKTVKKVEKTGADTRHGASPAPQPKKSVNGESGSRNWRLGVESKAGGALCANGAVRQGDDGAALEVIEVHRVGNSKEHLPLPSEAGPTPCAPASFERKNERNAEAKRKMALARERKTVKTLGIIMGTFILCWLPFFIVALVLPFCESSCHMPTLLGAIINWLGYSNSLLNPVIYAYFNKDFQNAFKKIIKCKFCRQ
Protocol: Measurement of the Efficacy of the Compounds of the Invention
The cells (Gibco Biocult. Laboratory, Paisley UK) are collected in phosphate buffer (pH=7.4) and centrifuged at 48 000 g for 20 minutes. The centrifugation pellet is homogenized in Hepes (20 mmol, pH=7.4) containing EDTA (10 mmol) and recentrifuged at 48 000×g for 10 minutes. The centrifugation pellet is washed twice in Hepes (10 mmol, pH=7.4) containing EDTA (0.1 mmol). The pellet is stored at −80° C. in portions of 600 to 750 μg of protein. […] The incubation medium contains 0.4 ml of membrane preparation and 0.05 ml of test compound. After incubation for 30 minutes at 25° C., 0.05 ml of [^35S]GTPγS (500 picomol), ([^35S]GTPγS (1100 Ci/mmol), Amersham, Les Ulis France), is added and the mixture incubated for 30 minutes. The reactions are quenched by addition of 3 ml of ice-cold Hepes (20 mmol) containing 3 mmol of MgCl2 and rapid filtration through Whatman GF/B filters. The tubes are rinsed 3 times with 5 ml of Hepes buffer at 25° C. The radioactivity collected on the filter is analyzed by liquid scintillation by adding 4 ml of scintillant liquid (Emulsifier Safe, Packard). […] All the experiments are performed in triplicate.

5-HT1A receptors [3] = target: T3, 5-HT1A receptors (Rattus norvegicus, UniProt P19327); experiment: Affinity for the 5-HT1A receptors, displacement of [3H]8-OH-DPAT; type: binding; settings: for Selectivity 5-HT1A/D2: ratio of 5-HT1A to D2 affinity; for Ki: read-out: 5-HT1A pKi (converted)
T3 construct: For these experiments, rat cerebral cortices are used; from tissue; host or cells: rat cerebral cortex homogenate
T3 sequence (P19327 1-422): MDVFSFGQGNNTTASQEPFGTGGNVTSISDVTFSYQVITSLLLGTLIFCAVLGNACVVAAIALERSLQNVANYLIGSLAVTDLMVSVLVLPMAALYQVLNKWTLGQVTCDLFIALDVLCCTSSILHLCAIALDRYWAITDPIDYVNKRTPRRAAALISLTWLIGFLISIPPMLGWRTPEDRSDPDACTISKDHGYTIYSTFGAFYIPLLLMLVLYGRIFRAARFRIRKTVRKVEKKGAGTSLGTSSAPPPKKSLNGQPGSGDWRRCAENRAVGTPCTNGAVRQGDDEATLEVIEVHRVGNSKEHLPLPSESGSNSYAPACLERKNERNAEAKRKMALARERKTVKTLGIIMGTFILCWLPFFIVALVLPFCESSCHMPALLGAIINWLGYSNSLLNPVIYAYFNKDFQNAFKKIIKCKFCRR
Protocol: Measurement of the affinity of the compounds in the invention for the 5-HT1A receptors
For these experiments, rat cerebral cortices are used. After thawing the brain in Tris-HCl buffer (50 mmol, pH=7.4) at 25° C., the cerebral cortex is removed and homogenized in 20 volumes of buffer maintained at 4° C. The homogenate is centrifuged at 39 000×g for 10 minutes, and the centrifugation pellet is suspended in the same volume of buffer and recentrifuged. After resuspending under the same conditions, the homogenate is incubated for 10 minutes at 37° C. and then recentrifuged. The final pellet is suspended in cold Tris-HCl reaction buffer (50 mmol) at 25° C. containing […] of pargyline, 4 mmol of CaCl2 and 0.10% of ascorbic acid. The final concentration of tissue in the incubation medium is 10 mg/tube.
The nonspecific binding is defined by using […] of serotonin. The reaction tubes are incubated at 23° C. for 30 minutes and their content is then rapidly filtered under vacuum through Whatman GF/B filters, and the tubes are rinsed with twice 5 ml of tris-HCl buffer at 25° C. The radio-activity collected on the filter is analyzed by liquid scintillation, by adding 4 ml of scintillant liquid (Emulsifier Safe, Packard, Warrenville, USA). All the experiments are performed in triplicate.

[4] = [35S]GTPγS binding, maximum stimulation defined with serotonin (10 μmmol), read-out: % stimulation Maximum effect

Compound: Cc1cnc(CNCC2(F)CCN(C(=O)c3ccc(Cl)c(Cl)c3)CC2)nc1 (as salt: fumarate) [Compound 1-6, (3,4-dichlorophenyl)-(4-fluoro-4-{[(5-methylpyrimidin-2-ylmethyl)amino]-methyl}piperidin-1-yl)methanone]
melting point: 161 °C

Compound: CCCN(CCC)C1CCc2cccc(O)c2C1 (stereo not drawn) [Compound 8-OH-DPAT, 8-hydroxy-2-di-n-propylaminotetralin, reference compound]
pKi [1]: 6.20
Emax (5-HT1A receptors [2]; read-out: % stimulation Maximum effect, [35S]GTPγS binding, maximum stimulation defined with serotonin (10 μmmol)): 41%

Compound: Cc1ccc(CNCC2(F)CCN(C(=O)c3ccc(Cl)c(Cl)c3)CC2)nn1 (as salt: oxalate) [Compound 1-8, (3,4-dichlorophenyl)-(4-fluoro-4-{[(6-methylpyridazin-3-ylmethyl)amino]-methyl}piperidin-1-yl)methanone]
melting point: 203 °C (dec.)

Compound: Cc1ccc(CNCC2(F)CCN(C(=O)c3cccc(C(F)(F)F)c3)CC2)nc1 (as salt: hydrochloride) [Compound 1-14, (3-trifluoromethylphenyl)-(4-fluoro-4-{[(5-methylpyridin-2-ylmethyl)amino]methyl}piperidin-1-yl)methanone]
melting point: 172 °C

Compound: CCCN(CCC)C1CCc2cccc(O)c2C1 (single isomer, unassigned; (+)) [(+)-8-OH-DPAT, reference compound]
pKi [1]: 6.10
% stimulation Maximum effect (5-HT1A receptors [2]; [35S]GTPγS binding, maximum stimulation defined with serotonin (10 μmmol)): 59%

Compound: Cc1ccc(CNCC2(F)CCN(C(=O)c3ccc(F)c(Cl)c3)CC2)nc1 [Compound I-66, (3-chloro-4-fluorophenyl)(4-fluoro-4-{[(5-methylpyridin-2-ylmethyl)-amino]methyl}piperidin-1-yl)methanone, reference compound]
pKi (5-HT1A receptors [3]): 9.10
Emax (5-HT1A receptors [2]; [4]): 75%

Compound: Cc1ccc(CNCC2(F)CCN(C(=O)c3ccc(F)c(C#N)c3)CC2)nc1 (as salt: fumarate) [Compound 1-13, (3-cyano-4-fluorophenyl)-(4-fluoro-4-{[(5-methylpyridin-2-ylmethyl)amino]methyl}piperidin-1-yl)methanone]
melting point: 175 °C

Compound: O=C1CC2(CCCC2)CC(=O)N1CCCCN1CCN(c2ncccn2)CC1 [buspirone]
Emax (5-HT1A receptors [2]; [4]): 22%

Other lines, results leading:

melting point: 190 °C (dec.)
Compound: Cc1ccc(CNCC2(Cl)CCN(C(=O)c3ccc(F)c(Cl)c3)CC2)nc1 (as salt: hydrochloride) [Compound 1-9, (3-chloro-4-fluorophenyl)-(4-chloro-4-{[(5-methylpyridin-2-ylmethyl)amino]-methyl}piperidin-1-yl)methanone]

melting point: 158 °C
Compound: Cc1ccc(CNCC2(F)CCN(C(=O)c3ccc(F)c(F)c3)CC2)nc1 (as salt: fumarate) [Compound 1-11, (3,4-difluorophenyl)-(4-fluoro-4-{[(5-methylpyridin-2-ylmethyl)amino]methyl}piperidin-1-yl)methanone]

melting point: 205 °C (dec.)
Compound: Cc1ccc(CNCC2(F)CCN(C(=O)c3ccc(F)c(Cl)c3)CC2)nn1 (as salt: hydrochloride) [Compound 1-7, (3-chloro-4-fluorophenyl)-(4-fluoro-4-{[(6-methylpyridazin-3-ylmethyl)amino]-methyl}piperidin-1-yl)methanone]

Selectivity 5-HT1A/D2 (5-HT1A receptors [3]): >1000
Ki (5-HT1A receptors [3]): 0.794 nM
Ki [1]: > 10000 nM
Emax (5-HT1A receptors [2]; [4]): 100%
Compound: Cc1ccc(CNCC2(Cl)CCN(C(=O)c3ccc(F)c(Cl)c3)CC2)nc1 [Compound 1-9, (3-chloro-4-fluorophenyl)-(4-chloro-4-{[(5-methylpyridin-2-ylmethyl)amino]-methyl}piperidin-1-yl)methanone]

melting point: 225 to 227 °C
Compound: O=C(c1ccc(F)c(Cl)c1)N1CCC(F)(CNCc2ccc(O)cn2)CC1 (as salt: fumarate) [Compound 1-1, (3-chloro-4-fluorophenyl)(4-fluoro-4-{[(5-hydroxypyridin-2-ylmethyl)amino]methyl}-piperidin-1-yl)methanone]

melting point: 157 to 159 °C
Compound: O=C(c1ccc(F)c(Cl)c1)N1CCC(F)(CNCc2ccc(CF)cn2)CC1 (as salt: fumarate) [Compound 1-4, (3-chloro-4-fluorophenyl)-(4-fluoro-4-{[(5-fluoromethylpyridin-2-ylmethyl)amino]-methyl}piperidin-1-yl)methanone]

melting point: 150 °C
Compound: Cc1ccc(CNCC2(F)CCN(C(=O)c3ccc(Cl)c(F)c3)CC2)nc1 (as salt: fumarate) [Compound 1-12, (3-fluoro-4-chlorophenyl)-(4-fluoro-4-{[(5-methylpyridin-2-ylmethyl)amino]methyl}piperidin-1-yl)methanone]

Selectivity 5-HT1A/D2 (5-HT1A receptors [3]): >1000
Ki (5-HT1A receptors [3]): 5.01 nM
Ki [1]: > 10000 nM
Emax (5-HT1A receptors [2]; [4]): 90%
Compound: Cc1ccc(CNCC2(F)CCN(C(=O)c3ccc(F)c(Cl)c3)CC2)nn1 [Compound 1-7, (3-chloro-4-fluorophenyl)-(4-fluoro-4-{[(6-methylpyridazin-3-ylmethyl)amino]-methyl}piperidin-1-yl)methanone]

melting point: 170 to 172 °C
Compound: N#Cc1ccc(CNCC2(F)CCN(C(=O)c3ccc(F)c(Cl)c3)CC2)nc1 (as salt: fumarate) [Compound 1-2, (3-chloro-4-fluorophenyl)-(4-fluoro-4-{[(5-cyanopyridin-2-ylmethyl)amino]methyl}-piperidin-1-yl)methanone]

melting point: 160 to 162 °C
Compound: O=C(c1ccc(F)c(Cl)c1)N1CCC(F)(CNCc2ccc(Cl)cn2)CC1 (as salt: fumarate) [Compound 1-3, (3-chloro-4-fluorophenyl)-(4-fluoro-4-{[(5-chloropyridin-2-ylmethyl)amino]methyl}piperidin-1-yl)methanone]
